Data from PubChem BioAssay AID2060486 (Molecular Pharmacology Branch, DTP, NCI, 2025).

Test system: IGROV1 complex spheroids (HUVEC, MSC), viability % test/control
Test: Anticancer human tumor IGROV1 cell line growth inhibition [GQUAD];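 further: spheroids exposed to compounds for 7 days before readout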
Settings: for IC50: curve of first compound; for viability, T/C: stronger effect = lower value
Source text: DNA G-quadruplex Stabilizer Agents in Combinations in Complex Spheroids
A high-throughput screen of multi-cell type tumor spheroids was designed to identify active combinations of DNA G-quadruplex stabilizer agents and targeted small molecules. Complex spheroids include a stromal component modeled by human endothelial cells (HUVEC) and fibroblasts modeled by human mesenchymal stem cells (MSCs). The concentration ranges selected for each drug and investigational agent were based upon clinically achievable concentrations if the clinical Cmax of the agent was known.
Compounds. The drugs and investigational agents: pidnarulex (CX-5461; NSC782164), APTO-253 (NSC789042), BRACO-19 (NSC847499), peposertib (NSC802822), ceralasertib (NSC780249), elimusertib (NSC800525), camonsertib (NSC841442), AZD-1390 (NSC803789), olaparib (NSC753686), talazoparib (NSC767125), ART-558 (NSC835418), sotorasib (NSC818433), MRTX-1133 (NSC836407), SN-38 (NSC673596), topotecan (NSC609699), etoposide (NSC141540), doxorubicin (NSC123127), gemcitabine (NSC613327), 5-fluorouracil (NSC19893), paclitaxel (NSC125973), vemurafenib (NSC761431), panobinostat (NSC761190), R-306465 (JNJ-16241199; NSC773264), adavosertib (NSC754352), TP-3654 (NSC805149), carboplatin (NSC241240), KSQ-4279 (NSC840948), and staurosporine (NSC755774) were obtained from the National Cancer Institute (NCI) Developmental Therapeutics Program Chemical Repository (34). The FDA-approved anticancer drug set is available from the NCI Developmental Therapeutics Program. […] The stock solutions were prepared in dimethyl sulfoxide (DMSO, Sigma-Aldrich, St. Louis, MO, cat. D2650) at 800-fold the tested concentration and stored at -70 degrees C prior to their use. All drugs and investigational agents were tested over a range starting from a high concentration at or near the clinical Cmax and decreasing in half-log increments. If the clinical Cmax for an agent had not been determined, the highest concentration tested was 10 microM.
2.3 Cell Culture. All cells were maintained in an incubator at 37 degrees C and 5% CO2 with 95% humidity. The PDC lines were cultured according to standard operating procedures established by the NCI PDMR. All PDCs were thawed and cultured in Matrigel-coated flasks prepared with a working solution of 1X Ham's F-12 nutrient mix, without supplementation (Invitrogen, cat. 11765054), 100 U/mL penicillin-streptomycin (Invitrogen, cat. 15140122), and 2.5% Matrigel (Corning Inc., cat. 354248) for the first three passages. The 857933-349-R-J2-PDC line was cultured in 6C/Colon 1B media, which includes advanced DMEM/F-12 (Thermo Fisher Scientific, cat. 12634028), 10 mM HEPES (Thermo Fisher Scientific, cat. 15630080), 1X GlutaMAX supplement (Thermo Fisher Scientific, cat. 35050061), 0.1 mg/mL primocin (InvivoGen, cat. ant-pm-2), 10% defined fetal bovine serum, heat inactivated (HyClone Laboratories Inc., cat. SH30070.03HI), 50% L-WRN conditioned media (ATCC, cat. CRL-3276), 1.25 mM N-Acetyl-L-cysteine (Sigma-Aldrich, cat. A9165), 10 mM nicotinamide (Sigma-Aldrich, cat. N0636), 1X B-27 supplement (Thermo Fisher Scientific, cat. 17504044), 1X N-2 supplement (Thermo Fisher Scientific, cat. 17502048), 10 microM Y-27632 dihydrochloride (Tocris Bioscience, cat. 1254), and 50 ng/mL human EGF recombinant protein (Thermo Fisher Scientific, cat. PHG0311). The 485176-168-R4-J1-PDC line was cultured in Panc media, which includes all 6C/Colon 1B media components plus 100 ng/mL human FGF-10 (Thermo Fisher Scientific, cat. 100-26), 500 nM SB-431542 (Selleckchem, cat. S1067), and gastrin (Tocris, cat. 3006).
[…]

CC1COCCN1c1cc(C2(O)CC3CCC(C2)O3)c2cnn(-c3ccn[nH]3)c2n1 (configuration not stated) + Cc1[nH]c2ccc(F)cc2c1-c1nc2c3cccnc3c3ncccc3c2[nH]1
IC50 (second compound 0.0316 µM): 37.6 nM
IC50 (second compound 0.1 µM): 42.3 nM
IC50 (second compound 0.316 µM): < 31.6 nM
IC50 (second compound 1 µM): < 31.6 nM
IC50 (second compound 3.16 µM): < 31.6 nM
IC50 (second compound 10 µM): < 31.6 nM
viability, T/C (second compound 0.0316 µM, first compound 0.0316 µM): 55.6%
viability, T/C (second compound 0.0316 µM, first compound 0.1 µM): 18.9%
viability, T/C (second compound 0.0316 µM, first compound 0.316 µM): 7.44%
viability, T/C (second compound 0.0316 µM, first compound 1 µM): 4.8%
viability, T/C (second compound 0.0316 µM, first compound 3.16 µM): 3.59%
viability, T/C (second compound 0.0316 µM, first compound 10 µM): 2.02%
viability, T/C (second compound 0.1 µM, first compound 0.0316 µM): 61%
viability, T/C (second compound 0.1 µM, first compound 0.1 µM): 17.7%
viability, T/C (second compound 0.1 µM, first compound 0.316 µM): 8.01%
viability, T/C (second compound 0.1 µM, first compound 1 µM): 6.5%
viability, T/C (second compound 0.1 µM, first compound 3.16 µM): 3.58%
viability, T/C (second compound 0.1 µM, first compound 10 µM): 1.71%
viability, T/C (second compound 0.316 µM, first compound 0.0316 µM): 21.6%
viability, T/C (second compound 0.316 µM, first compound 0.1 µM): 7.64%
viability, T/C (second compound 0.316 µM, first compound 0.316 µM): 4.88%
viability, T/C (second compound 0.316 µM, first compound 1 µM): 3.7%
viability, T/C (second compound 0.316 µM, first compound 3.16 µM): 3.28%
viability, T/C (second compound 0.316 µM, first compound 10 µM): 1.86%
viability, T/C (second compound 1 µM, first compound 0.0316 µM): 3%
viability, T/C (second compound 1 µM, first compound 0.1 µM): 3.91%
viability, T/C (second compound 1 µM, first compound 0.316 µM): 3.25%
viability, T/C (second compound 1 µM, first compound 1 µM): 3.03%
viability, T/C (second compound 1 µM, first compound 3.16 µM): 3.34%
viability, T/C (second compound 1 µM, first compound 10 µM): 1.4%
viability, T/C (second compound 3.16 µM, first compound 0.0316 µM): 3.59%
viability, T/C (second compound 3.16 µM, first compound 0.1 µM): 4.2%
viability, T/C (second compound 3.16 µM, first compound 0.316 µM): 3.24%
viability, T/C (second compound 3.16 µM, first compound 1 µM): 3.06%
viability, T/C (second compound 3.16 µM, first compound 3.16 µM): 3.02%
viability, T/C (second compound 3.16 µM, first compound 10 µM): 1.16%
viability, T/C (second compound 10 µM, first compound 0.0316 µM): 3.5%
viability, T/C (second compound 10 µM, first compound 0.1 µM): 2.96%
viability, T/C (second compound 10 µM, first compound 0.316 µM): 4.38%
viability, T/C (second compound 10 µM, first compound 1 µM): 2.77%
viability, T/C (second compound 10 µM, first compound 3.16 µM): 3%
viability, T/C (second compound 10 µM, first compound 10 µM): 1.15%
